pIC50: −log10 of the molar value. Like-named read-outs stand apart in the source and are kept apart here.
System: cancer cell lines
Experiment: Cancer cell proliferation activity (CellTiterGlo, 72 h)
Type: cell-based
Settings: 72 h, 72 h, read-out: IC50
Method: Dose response relationships on cell proliferation was assessed for representative Compounds of the Disclosure on cancer cell lines. Briefly, compound treatment of cells started one day after seeding with a final DMSO concentration of 0.1%, and was performed by nanodrop-dispensing using a Tecan Dispenser. 0.1% DMSO (solvent) and Staurosporine (10 μM) served as high control (100% viability) and low control (0% viability), respectively.
Cells were cultured in the appropriate media. For the assays, cells were seeded in white cell culture-treated flat and clear bottom multiwell plates and incubated at 37° C. overnight before compound was added. After incubation for 72 h at 37° C. at 5% or 10% CO2 dependent on the medium, cell plates were equilibrated to room temperature for one hour, CellTiterGlo reagent (Promega) was added and luminescence was measured approximately an hour later using a luminometer.
Raw data were converted into percent cell viability relative to the high and low control, which were set to 100% and 0%, respectively.
The IC50 values are summarized in Tables 9A-1, Table 10A, and Table 10B.

Work on `CC[C@]1(CO)O[C@@H](n2cnc3c(N)nc(F)nc32)C[C@@H]1O` [Cpd. No. 1, (2R,3S,5R)-5-(6-amino-2-fluoro-9H-purin-9-yl)-2-ethyl-2-(hydroxymethyl)tetrahydrofuran-3-ol] yielded a pIC50 (5637 cell line (bladder)) of 6.06, a pIC50 (CLS439 cell line (bladder)) of less than 4.30 and a pIC50 (HS729 cell line (muscle)) of 5.91. The pIC50 (JAR cell line (placenta)) was 6.36, the pIC50 (U20S cell line, bone) was 6.08 and the pIC50 (Homo sapiens, 22Rv1, 72 h, 22RV1 cell line (prostate)) was 5.73. The pIC50 (Homo sapiens, 786-0, 72 h, 786O cell line (kidney)) was 6.21, the pIC50 (Homo sapiens, A204, 72 h, A204 cell line (muscle)) was 6.26 and the pIC50 (Homo sapiens, A549, 72 h, A549 cell line, lung) was less than 4.30. It also gave a pIC50 (Homo sapiens, A673, 72 h, A673 cell line (bone)) of 5.59, a pIC50 (Homo sapiens, A2780, 72 h, A2780 cell line (ovary)) of 6.04 and a pIC50 (Homo sapiens, A-375, 72 h, A375 cell line (skin)) of 6.28. The pIC50 (Homo sapiens, A-431, 72 h, A431 cell line (skin)) was 6.28, the pIC50 (Homo sapiens, ACHN, ACHN cell line (kidney)) was less than 4.30 and the pIC50 (Homo sapiens, ASPC1, 72 h, ASPC1 cell line (pancreas)) was 6.33. The pIC50 (Homo sapiens, BT-20, 72 h, BT20 cell line (breast)) was 6.26, the pIC50 (Homo sapiens, C-33-A, C33A cell line, endometrial) was 6.02 and the pIC50 (Homo sapiens, CAKI-1, 72 h, CAKI1 cell line (kidney)) was 7.22. It also gave a pIC50 (Homo sapiens, COLO 205, 72 h, COLO205 cell line (colon)) of 5.97, a pIC50 (Homo sapiens, COLO-678, 72 h, COLO678 cell line (colon)) of less than 4.30 and a pIC50 (Homo sapiens, Ca-Ski, CASKI cell line, endometrial) of 6.51. For the same compound, the pIC50 (Homo sapiens, Caco-2, 72 h, CACO2 cell line (colon)) was 5.98, the pIC50 (Homo sapiens, Calu-6, 72 h, CALU6 cell line (lung)) was 6.19 and the pIC50 (Homo sapiens, DLD-1, 72 h, DLD1 cell line (colon)) was 5.68. For the same compound, the pIC50 (Homo sapiens, DU-145, 72 h, DU145 cell line (prostate)) was 6.72, the pIC50 (Homo sapiens, EFO-21, 72 h, EFO21 cell line (ovary)) was 6.28 and the pIC50 (Homo sapiens, EJ-28, 72 h, EJ28 cell line (bladder)) was 6.31. It also gave a pIC50 (Homo sapiens, Granta-519, 72 h, GRANTA-519 cell line (hematological)) of less than 4.30, a pIC50 (Homo sapiens, HCT-15, 72 h, HCT15 cell line (colon)) of 5.56 and a pIC50 (Homo sapiens, HCT-116, 72 h, HCT116 cell line (colon)) of 6.09. For the same compound, the pIC50 (Homo sapiens, HEK293, 72 h, HEK293 cell line (kidney)) was 6.15, the pIC50 (Homo sapiens, HL-60, 72 h, HL-60 cell line (hematological)) was 6.08 and the pIC50 (Homo sapiens, HT-29, 72 h, HT29 cell line (colon)) was 6.28. For the same compound, the pIC50 (Homo sapiens, HT-1080, 72 h, HT1080 cell line (connective tissue)) was less than 4.30, the pIC50 (Homo sapiens, HeLa, HELA cell line, endometrial) was 5.97 and the pIC50 (Homo sapiens, HepG2, 72 h, HEPG2 cell line (liver)) was 6.17. For the same compound, the pIC50 (Homo sapiens, Hs-578T, HS578T cell line, breast) was 6.07, the pIC50 (Homo sapiens, IGROV-1, 72 h, IGROV1 cell line (ovary)) was 6.42 and the pIC50 (Homo sapiens, IMR-90, 72 h, IMR90 cell line, lung) was 6.19. The pIC50 (Homo sapiens, J82, 72 h, J82 cell line (bladder)) was 6.27, the pIC50 (Homo sapiens, JEG-3, 72 h, JEG3 cell line (placenta)) was 6.17 and the pIC50 (Homo sapiens, JIMT-1, 72 h, JIMT1 cell line (breast)) was 6.80. It also gave a pIC50 (Homo sapiens, K562, 72 h, K-562 cell line (hematological)) of less than 4.30, a pIC50 (Homo sapiens, Kasumi 1, 72 h, KASUMI-1 cell line (hematological)) of 6.82 and a pIC50 (Homo sapiens, L-363, 72 h, L-363 cell line (hematological)) of 6.24. For the same compound, the pIC50 (Homo sapiens, LoVo, LOVO cell line (colon)) was 6.54, the pIC50 (Homo sapiens, MCF7, 72 h, MCF7 cell line (breast)) was less than 4.30 and the pIC50 (Homo sapiens, MDA-MB-231, 72 h, MDAMB231 cell line (breast)) was less than 4.30. The pIC50 (Homo sapiens, MDA-MB-435, 72 h, MDAMB435 cell line (skin)) was 5.76, the pIC50 (Homo sapiens, MDA-MB-436, 72 h, MDAMB436 cell line (breast)) was 6.43 and the pIC50 (Homo sapiens, MDA-MB-468, 72 h, MDAMB468 cell line (breast)) was 6.16. It also gave a pIC50 (Homo sapiens, MG-63, 72 h, MG63 cell line (bone)) of less than 4.30, a pIC50 (Homo sapiens, MHH-ES-1, 72 h, MHHES1 cell line (bone)) of 6.22 and a pIC50 (Homo sapiens, MIA PaCa-2, 72 h, MIAPACA2 cell line (pancreas)) of less than 4.30. The pIC50 (Homo sapiens, MINO, MINO cell line (hematological)) was 6.60, the pIC50 (Homo sapiens, MV4-11, 72 h, MV4-11 cell line (hematological)) was 6.77 and the pIC50 (Homo sapiens, NCI-H23, 72 h, NCI-H23 cell line (lung)) was 6.08. It also gave a pIC50 (Homo sapiens, NCI-H82, 72 h, NCIH82 cell line (lung)) of 6.21, a pIC50 (Homo sapiens, NCI-H292, 72 h, NCIH292 cell line (lung)) of less than 4.30 and a pIC50 (Homo sapiens, NCI-H460, 72 h, NCIH460 cell line (lung)) of 6.01. The pIC50 (Homo sapiens, OVCAR-3, 72 h, OVCAR3 cell line (ovary)) was 6.59, the pIC50 (Homo sapiens, OVCAR-4, 72 h, OVCAR4 cell line (ovary)) was 6.02 and the pIC50 (Homo sapiens, PANC-1, 72 h, PANC1 cell line (pancreas)) was less than 4.30. It also gave a pIC50 (Homo sapiens, PC-3, 72 h, PC3 cell line (prostate)) of 6.06, a pIC50 (Homo sapiens, PLC-PRF-5, 72 h, PLCPRF5 cell line (liver)) of 5.49 and a pIC50 (Homo sapiens, Panc1005, 72 h, PANC1005 cell line (pancreas)) of 6.36. The pIC50 (Homo sapiens, RD, RD cell line (muscle)) was 5.84, the pIC50 (Homo sapiens, Ramos, RAMOS cell line (hematological)) was 6.03 and the pIC50 (Homo sapiens, SAOS-2, 72 h, SAOS2 cell line (bone)) was 6.19. It also gave a pIC50 (Homo sapiens, SF-268, 72 h, SF268 cell line (brain)) of less than 4.30, a pIC50 (Homo sapiens, SF-295, 72 h, SF295 cell line (brain)) of 5.85 and a pIC50 (Homo sapiens, SK-BR-3, 72 h, SKBR3 cell line (breast)) of 6.82. For the same compound, the pIC50 (Homo sapiens, SK-HEP1, 72 h, SKHEP1 cell line (liver)) was less than 4.30, the pIC50 (Homo sapiens, SK-LMS-1, 72 h, SKLMS1 cell line (uterus)) was 6.33 and the pIC50 (Homo sapiens, SK-MEL-5, 72 h, SKMEL5 cell line, skin) was less than 4.30. For the same compound, the pIC50 (Homo sapiens, SK-MEL-28, 72 h, SKMEL28 cell line (skin)) was 5.90, the pIC50 (Homo sapiens, SK-N-AS, SKNAS cell line (brain)) was 5.94 and the pIC50 (Homo sapiens, SK-N-SH, SKNSH cell line (brain)) was 6.12. The pIC50 (Homo sapiens, SK-OV-3, 72 h, SKOV3 cell line (ovary)) was 6.12, the pIC50 (Homo sapiens, SNB-75, 72 h, SNB75 cell line (brain)) was 5.63 and the pIC50 (Homo sapiens, SU-DHL10, 72 h, SU-DHL-10 cell line (hematological)) was 6.92. The pIC50 (Homo sapiens, SU-DHL-6, 72 h, SU-DHL-6 cell line (hematological)) was 6.37, the pIC50 (Homo sapiens, SW-620, 72 h, SW620 cell line (colon)) was 6.14 and the pIC50 (Homo sapiens, T-24, 72 h, T24 cell line (bladder)) was 5.84. It also gave a pIC50 (Homo sapiens, TE-671, 72 h, TE671 cell line (muscle)) of 5.32, a pIC50 (Homo sapiens, THP-1, 72 h, THP-1 cell line (hematological)) of less than 4.30 and a pIC50 (Homo sapiens, U-87 MG, U87MG cell line (brain)) of less than 4.30. The pIC50 (Homo sapiens, UMUC3, 72 h, UMUC3 cell line (bladder)) was less than 4.30, the pIC50 (Homo sapiens, UO-31, 72 h, UO31 cell line (kidney)) was 6.20 and the pIC50 (Homo sapiens, WSU-NHL, WSU-NHL cell line (hematological)) was 6.14. It also gave a pIC50 (MT-3, 72 h, MT3 cell line (breast)) of 6.29, a pIC50 (NCI-H358M, NCIH358M cell line (lung)) of 6.25 and a pIC50 (PBMC, PBMC (hematological)) of 6.51. For the same compound, the pIC50 (RD-ES, RDES cell line (bone)) was 6.39.

— patent publication US20250215039A1, “NUCLEOSIDES FOR TREATING CANCER” (PRIMEFOUR THERAPEUTICS, INC., priority 2022, published 2025)
